The record followed here is paper PMC2685987, “Integrating Statistical Predictions and Experimental Verifications for Enhancing Protein-Chemical Interaction Predictions in Virtual Screening” (PLoS Computational Biology, 2009).

The assay has as its target T1, MBP-ARC (Maltose Binding Protein tagged Androgen Receptor C-termini) (Homo sapiens, UniProt P10275).
T1 construct: made in house; host or cells: E. coli DH5a
T1 sequence (P10275 609-919): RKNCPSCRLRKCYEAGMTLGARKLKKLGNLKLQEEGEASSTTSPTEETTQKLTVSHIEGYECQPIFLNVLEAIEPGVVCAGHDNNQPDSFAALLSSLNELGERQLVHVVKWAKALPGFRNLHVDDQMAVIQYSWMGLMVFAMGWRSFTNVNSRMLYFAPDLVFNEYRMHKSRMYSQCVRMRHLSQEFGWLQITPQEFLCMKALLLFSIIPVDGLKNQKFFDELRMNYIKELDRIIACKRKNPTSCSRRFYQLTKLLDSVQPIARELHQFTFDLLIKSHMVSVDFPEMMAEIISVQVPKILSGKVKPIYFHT
Put plainly: in vitro binding assay - hydroxyapatite method ([3H]-DHT competition). The conditions noted are these: concentration of unlabeled test compound at which 50% of the [3H]-DHT is still bound to MBP-ARC; 2 nM [3H]-DHT, 50 µg/ml MBP-ARC, three hours.

Description: 1.9 The in vitro binding assay - hydroxyapatite method
800 mM NaCl, 10 % glycerol, 1mg/ml BSA and 2mM DTT to obtain a 100 l mixture solution.
mixture solution was incubated at 4 for 3 hours.
After incubation, BioGel HT (Bio-Rad Laboratories) was added to the solution and incubated on ice
for 15 minutes, during which vortexing was done every 5 minutes. The incubated solution was centrifuged
at 1,000 rpm for a minute and a supernatant was removed.
A wash buﬀer consisting of 40 mM Tris-HCl pH 7.6, 100 mM KCl, 1mM EDTA and 1mM EGTA and
cooled on ice was added to the precipitate by 1 ml and mixed. The produced solution was centrifuged
at 1,000 rpm and a supernatant was removed. This process was repeated three times.
The collected precipitate was suspended in 3 ml Aquasol (New England nuclear Corp.). Radioactivity
of the suspended solution in a scintillation vial (Perkin Elmer) was measured by a liquid scintillation
test compounds was regarded as IC50 of the test compound.

As a reminder, the IC50 is the midpoint of a concentration-inhibition curve. Low readings indicate inhibition by little substance, high ones a need for much substance. With `Cc1c(-c2ccc(NC(=O)C(C)(C)C)cc2)nc2ccc(Cl)cn12` [T5853872], the half-maximal inhibitory concentration (IC50) was found to be 80 µM.
